Measured values: patent publication US10167262B2, “Herbicidal substituted 3-arylpyrazoles” (FMC CORPORATION, priority 2014, dated 2019)

Assays:
Type in all cases: in vivo
[1] = system: barnyardgrass (Echinochloa crus-galli); test: Test B flooded paddy test, plant response rating 0-100; details: Flood, 250 g ai/ha; scale 0 to 100 (0 no effect, 100 complete control); 13 to 15 days
Summary of the method: (§1)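 Compound was added to standing water 3 cm above soil, flood maintained, and plants held in a greenhouse before visual scoring against controls at 13 to 15 days.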

[2] = system: ducksalad (Heteranthera limosa); test: as above; details: Flood, 250 g ai/ha; scale 0 to 100 (0 no effect, 100 complete control); 13 to 15 days
Summary of the method: as §1

rice (Oryza sativa) = test: as above; details: Flood, 250 g ai/ha; scale 0 to 100 (0 no effect, 100 complete control); 13 to 15 days
Summary of the method: as §1

[3] = system: sedge, umbrella (small-flower umbrella sedge, Cyperus difformis); test: as above; details: Flood, 250 g ai/ha; scale 0 to 100 (0 no effect, 100 complete control); 13 to 15 days
Summary of the method: as §1

[4] = system: canarygrass (Phalaris minor); test: Test C postemergence greenhouse test, plant response rating 0-100; details: for Plant response rating, Canarygrass: scale 0 to 100
Summary of the method: (§2)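 Plants rated visually 0 (no effect) to 100 (complete control) against untreated controls after 13 to 15 days in the greenhouse, dash indicating no result. Treatment was a postemergence application of formulated chemicals at the 1- to 4-leaf stage (2 to 18 cm), in pots of peat-vermiculite medium.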

[5] = system: deadnettle (henbit deadnettle, Lamium amplexicaule); test: as above; details: for Plant response rating, Deadnettle: scale 0 to 100
Summary of the method: as §2

[6] = system: downy bromegrass (Bromus tectorum); test: as above; details: for Plant response rating, Bromegrass, Downy: scale 0 to 100
Summary of the method: as §2

[7] = system: goosegrass (Eleusine indica); test: as above; details: for Plant response rating, Goosegrass: scale 0 to 100
Summary of the method: as §2

[8] = system: green foxtail (Setaria viridis); test: as above; details: for Plant response rating, Foxtail, Green: scale 0 to 100
Summary of the method: as §2

[9] = system: windgrass (Apera spica-venti); test: as above; details: for Plant response rating, Windgrass: scale 0 to 100
Summary of the method: as §2

[10] = system: winter barley (Hordeum vulgare); test: as above; details: for Plant response rating, Barley: scale 0 to 100
Summary of the method: as §2

[11] = system: woolly cupgrass (Eriochloa villosa); test: as above; details: for Plant response rating, Cupgrass, Woolly: scale 0 to 100
Summary of the method: as §2

[12] = system: fall panicum (Panicum dichotomiflorum); test: Test E pre-/postemergence greenhouse test, plant response rating 0-100; details: scale 0 to 100; for Panicum, Fall plant response rating: Preemergence
Summary of the method: (§3)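 Rated visually against controls 14-21 days after treatment on a 0-100 scale (100 = complete control). Pre- and postemergence sprays used a non-phytotoxic solvent mixture with surfactant. Preemergence seeds were in silt loam; postemergence plants were in peat-based medium at the 1- to 4-leaf stage (2-18 cm).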

soybean (Glycine max) = test: as above; details: scale 0 to 100; for Soybean plant response rating: Preemergence
Summary of the method: as §3

[13] = system: waterhemp_RES2, (ALS & HPPD resistant common waterhemp, Amaranthus rudis); test: Test E postemergence greenhouse test, plant response rating 0-100; details: scale 0 to 100
Summary of the method: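 Visual ratings, 0 (no effect) to 100 (complete control), made versus controls 14–21 days after postemergence application in the greenhouse. Plants were at 1- to 4-leaf stage (2–18 cm) in peat moss/vermiculite potting medium.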

## Clc1cc(Cl)cc(-c2n[nH]cc2C(=NNc2ccccc2Cl)c2ccccc2)c1 [Compound 66]
[1]
  Plant response rating, Barnyardgrass: 0
[2]
  Plant response rating, Ducksalad: 0
Rice (Oryza sativa)
  Plant response rating, Rice: 0
[3]
  Plant response rating, Sedge, Umbrella: 70
[4]; 62 g ai/ha
  Plant response rating (0 to 100), Canarygrass: 0
[4]; 125 g ai/ha
  Plant response rating (0 to 100), Canarygrass: 0
[4]; 250 g ai/ha
  Plant response rating, Canarygrass: 0
[4]; 500 g ai/ha
  Plant response rating, Canarygrass: 0
[5]; 62 g ai/ha
  Plant response rating (0 to 100), Deadnettle: 0
[5]; 125 g ai/ha
  Plant response rating (0 to 100), Deadnettle: 0
[5]; 250 g ai/ha
  Plant response rating, Deadnettle: 0
[5]; 500 g ai/ha
  Plant response rating, Deadnettle: 5
[6]; 62 g ai/ha
  Plant response rating (0 to 100), Bromegrass, Downy: 0
[6]; 125 g ai/ha
  Plant response rating (0 to 100), Bromegrass, Downy: 0
[6]; 250 g ai/ha
  Plant response rating, Bromegrass, Downy: 0
[6]; 500 g ai/ha
  Plant response rating, Bromegrass, Downy: 0
[7]; 62 g ai/ha
  Plant response rating (0 to 100), Goosegrass: 0
[7]; 125 g ai/ha
  Plant response rating (0 to 100), Goosegrass: 0
[7]; 250 g ai/ha
  Plant response rating, Goosegrass: 0
[7]; 500 g ai/ha
  Plant response rating, Goosegrass: 0
[8]; 62 g ai/ha
  Plant response rating (0 to 100), Foxtail, Green: 0
[8]; 125 g ai/ha
  Plant response rating (0 to 100), Foxtail, Green: 0
[8]; 250 g ai/ha
  Plant response rating, Foxtail, Green: 0
[8]; 500 g ai/ha
  Plant response rating, Foxtail, Green: 0
[9]; 62 g ai/ha
  Plant response rating (0 to 100), Windgrass: 0
[9]; 125 g ai/ha
  Plant response rating (0 to 100), Windgrass: 0
[9]; 250 g ai/ha
  Plant response rating, Windgrass: 0
[9]; 500 g ai/ha
  Plant response rating, Windgrass: 0
[10]; 62 g ai/ha
  Plant response rating (0 to 100), Barley: 0
[10]; 125 g ai/ha
  Plant response rating (0 to 100), Barley: 0
[10]; 250 g ai/ha
  Plant response rating, Barley: 0
[10]; 500 g ai/ha
  Plant response rating, Barley: 0
[11]; 62 g ai/ha
  Plant response rating (0 to 100), Cupgrass, Woolly: 0
[11]; 125 g ai/ha
  Plant response rating (0 to 100), Cupgrass, Woolly: 0
[11]; 250 g ai/ha
  Plant response rating, Cupgrass, Woolly: 0
[11]; 500 g ai/ha
  Plant response rating, Cupgrass, Woolly: 0

## Cn1cc(C(=O)c2ccccc2)c(-c2cc(Br)cc(Br)c2)n1 [Compound 53]
[1]
  Plant response rating, Barnyardgrass: 0
[2]
  Plant response rating, Ducksalad: 0
Rice (Oryza sativa)
  Plant response rating, Rice: 0
[3]
  Plant response rating, Sedge, Umbrella: 40
[4]; 62 g ai/ha
  Plant response rating (0 to 100), Canarygrass: 0
[4]; 125 g ai/ha
  Plant response rating (0 to 100), Canarygrass: 0
[4]; 250 g ai/ha
  Plant response rating, Canarygrass: 0
[4]; 500 g ai/ha
  Plant response rating, Canarygrass: 0
[5]; 62 g ai/ha
  Plant response rating (0 to 100), Deadnettle: 0
[5]; 125 g ai/ha
  Plant response rating (0 to 100), Deadnettle: 0
[5]; 250 g ai/ha
  Plant response rating, Deadnettle: 0
[5]; 500 g ai/ha
  Plant response rating, Deadnettle: 0
[6]; 62 g ai/ha
  Plant response rating (0 to 100), Bromegrass, Downy: 0
[6]; 125 g ai/ha
  Plant response rating (0 to 100), Bromegrass, Downy: 0
[6]; 250 g ai/ha
  Plant response rating, Bromegrass, Downy: 0
[6]; 500 g ai/ha
  Plant response rating, Bromegrass, Downy: 0
[7]; 62 g ai/ha
  Plant response rating (0 to 100), Goosegrass: 5
[7]; 125 g ai/ha
  Plant response rating (0 to 100), Goosegrass: 5
[7]; 250 g ai/ha
  Plant response rating, Goosegrass: 5
[7]; 500 g ai/ha
  Plant response rating, Goosegrass: 5
[8]; 62 g ai/ha
  Plant response rating (0 to 100), Foxtail, Green: 0
[8]; 125 g ai/ha
  Plant response rating (0 to 100), Foxtail, Green: 0
[8]; 250 g ai/ha
  Plant response rating, Foxtail, Green: 0
[8]; 500 g ai/ha
  Plant response rating, Foxtail, Green: 0
[9]; 62 g ai/ha
  Plant response rating (0 to 100), Windgrass: 0
[9]; 125 g ai/ha
  Plant response rating (0 to 100), Windgrass: 0
[9]; 250 g ai/ha
  Plant response rating, Windgrass: 0
[9]; 500 g ai/ha
  Plant response rating, Windgrass: 0
[10]; 62 g ai/ha
  Plant response rating (0 to 100), Barley: 0
[10]; 125 g ai/ha
  Plant response rating (0 to 100), Barley: 0
[10]; 250 g ai/ha
  Plant response rating, Barley: 0
[10]; 500 g ai/ha
  Plant response rating, Barley: 0
[11]; 62 g ai/ha
  Plant response rating (0 to 100), Cupgrass, Woolly: 5
[11]; 125 g ai/ha
  Plant response rating (0 to 100), Cupgrass, Woolly: 5
[11]; 250 g ai/ha
  Plant response rating, Cupgrass, Woolly: 5
[11]; 500 g ai/ha
  Plant response rating, Cupgrass, Woolly: 5

## O=C(c1ccccc1)c1cn(CO)nc1-c1cc(Cl)cc(Cl)c1 [Compound 15, [3-(3,5-dichlorophenyl)-1-(hydroxymethyl)-1H-pyrazol-4-yl]phenylmethanone]
[1]
  Plant response rating, Barnyardgrass: 0
[2]
  Plant response rating, Ducksalad: 0
Rice (Oryza sativa)
  Plant response rating, Rice: 0
[3]
  Plant response rating, Sedge, Umbrella: 0
[12]; Panicum dichotomiflorum, post-emergence, Postemergence, 31 g ai/ha
  pest or weed control at 31 g/ha: 0%
[12]; Panicum dichotomiflorum, post-emergence, Postemergence, 62 g ai/ha
  pest or weed control at 62 g/ha: 0%
[12]; Panicum dichotomiflorum, post-emergence, Postemergence, 125 g ai/ha
  pest or weed control at 125 g/ha: 0%
[12]; Panicum dichotomiflorum, post-emergence, Postemergence, 250 g ai/ha
  pest or weed control at 250 g/ha: 0%
[12]; Panicum dichotomiflorum, post-emergence, Postemergence, 500 g ai/ha
  pest or weed control at 500 g/ha: 35%
[12]; 31 g ai/ha
  Panicum, Fall plant response rating: 0
[12]; 62 g ai/ha
  Panicum, Fall plant response rating: 0
[12]; 125 g ai/ha
  Panicum, Fall plant response rating: 0
[12]; 250 g ai/ha
  Panicum, Fall plant response rating: 0
[12]; 500 g ai/ha
  Panicum, Fall plant response rating: 0
Soybean (Glycine max); Glycine max, post-emergence, Postemergence, 31 g ai/ha
  plant injury at 31 g/ha: 0%
Soybean (Glycine max); Glycine max, post-emergence, Postemergence, 62 g ai/ha
  plant injury at 62 g/ha: 0%
Soybean (Glycine max); Glycine max, post-emergence, Postemergence, 125 g ai/ha
  plant injury at 125 g/ha: 0%
Soybean (Glycine max); Glycine max, post-emergence, Postemergence, 250 g ai/ha
  plant injury at 250 g/ha: 0%
Soybean (Glycine max); Glycine max, post-emergence, Postemergence, 500 g ai/ha
  plant injury at 500 g/ha: 0%
Soybean (Glycine max); 31 g ai/ha
  Soybean plant response rating: 0
Soybean (Glycine max); 62 g ai/ha
  Soybean plant response rating: 0
Soybean (Glycine max); 125 g ai/ha
  Soybean plant response rating: 0
Soybean (Glycine max); 250 g ai/ha
  Soybean plant response rating: 0
Soybean (Glycine max); 500 g ai/ha
  Soybean plant response rating: 0
[13]; 31 g ai/ha
  Plant response rating, Waterhemp_RES2: 60
[13]; 62 g ai/ha
  Plant response rating, Waterhemp_RES2: 70
[13]; 125 g ai/ha
  Plant response rating, Waterhemp_RES2: 75
[13]; 250 g ai/ha
  Plant response rating, Waterhemp_RES2: 90
[13]; 500 g ai/ha
  Plant response rating, Waterhemp_RES2: 98
